US8461160B2, “Dihydropyrimidinones” (Hoffmann-La Roche, Inc., priority 2009, dated 2013)

Each molecule was assayed against T1, BACE2 (Homo sapiens, UniProt Q9Y5Z0) (assay: Fluorescent-peptide cleavage assay for BACE2 inhibition). Details: BACE2 enzyme ectodomain, fluorescent peptide WS EVNLD AEFRC-MR121, assay buffer pH 4.5, room temperature.
T1 construct: BACE2 enzyme ectodomain (derived from plasmid “pET17b-T7-hu proBACE2”) was prepared as described in Ostermann et al; T7 tag (N); made in house
T1 sequence (Q9Y5Z0 21-473 limits assumed): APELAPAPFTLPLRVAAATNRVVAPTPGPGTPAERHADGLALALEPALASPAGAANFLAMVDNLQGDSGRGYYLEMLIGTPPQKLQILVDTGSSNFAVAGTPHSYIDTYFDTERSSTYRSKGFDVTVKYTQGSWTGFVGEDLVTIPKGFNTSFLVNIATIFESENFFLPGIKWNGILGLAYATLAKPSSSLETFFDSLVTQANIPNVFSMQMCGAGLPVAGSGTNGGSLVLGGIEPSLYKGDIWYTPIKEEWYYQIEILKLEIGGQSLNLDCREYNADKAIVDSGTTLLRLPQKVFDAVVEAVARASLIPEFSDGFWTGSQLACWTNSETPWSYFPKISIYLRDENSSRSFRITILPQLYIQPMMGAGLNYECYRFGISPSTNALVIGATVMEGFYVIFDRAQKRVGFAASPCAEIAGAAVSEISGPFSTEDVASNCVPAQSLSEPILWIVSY
Type: biochemical
Procedure: Fluorescent-Peptide Cleavage Assay for BACE2 Inhibition
The pro-enzyme was stored at 4° C. at a concentration of 70 μg/ml.
A fluorescent peptide with the amino acid sequence WS EVNLD AEFRC-MR121 was synthesised and a stock solution of 1.5 mM in DMSO prepared and stored at −20° C. MR121 is a fluorophore with an excitation wavelength of 630 nm and emission wavelength of 695 nm. The MR121 fluorescence is quenched by the N-terminal tryptophan until the peptide is cleaved by BACE2.
Assays were all made in a Corning 384-well black polystyrene non-binding surface microtitre plate with clear flat bottom and using a Plate:Vision (Perkin Elmer) fluorescence reader. To perform the assay an 80 nM solution of BACE2 was prepared in assay buffer (assay buffer is 100 mM Na-acetate; 20 mM EDTA; 0.05% BSA; pH 4.5) and incubated at room temperature for 1 hour to activate the enzyme. 39 μl of the activated BACE2 was placed in each assay well, followed by 1 μl compound to be tested at an appropriate concentration in 100% DMSO. The plate was then mixed and incubated for 10 minutes at room temperature.
The assay readout is the rate of change of fluorescence intensity giving a relative measure of BACE2 activity. Small values correspond to high inhibition and larger values to low inhibition. […] IC50 values were determined using these assay values generated for a range of inhibitor concentrations and the curve fitting software XLfit (IDBS) using the Sigmoidal Dose-Response Model.

For Cc1ccc(C(=O)Nc2cccc([C@]3(C)CC(=O)N(C)C(N)=N3)c2)s1 [Example 1, 5-Methyl-thiophene-2-carboxylic acid [3-((S)-2-amino-1,4-dimethyl-6-oxo-1,4,5,6-tetrahydro-pyrimidin-4-yl)-phenyl]-amide], which IC50 is on record?
Its IC50 is 13 nM.

How did the IC50 turn out when CN1C(=O)C[C@@](C)(c2cccc(NC(=O)c3ccc(Cl)s3)c2)N=C1N [Example 2, 5-Chloro-thiophene-2-carboxylic acid [3-((S)-2-amino-1,4-dimethyl-6-oxo-1,4,5,6-tetrahydro-pyrimidin-4-yl)-phenyl]amide] was run?
Its IC50 is 14 nM.

Cc1cc(C(=O)Nc2cccc([C@]3(C)CC(=O)N(C)C(N)=N3)c2)c(C)s1 [Example 3, 2,5-Dimethyl-thiophene-3-carboxylic acid [3-((S)-2-amino-1,4-dimethyl-6-oxo-1,4,5,6-tetrahydro-pyrimidin-4-yl)-phenyl]amide] was tested. Which IC50 did it give?
The IC50 was 86 nM.

Cc1nc(C(=O)Nc2cccc([C@]3(C)CC(=O)N(C)C(N)=N3)c2)c(C)o1 [Example 4, 2,5-Dimethyl-oxazole-4-carboxylic acid [3-((S)-2-amino-1,4-dimethyl-6-oxo-1,4,5,6-tetrahydro-pyrimidin-4-yl)-phenyl]amide] was tested. Which IC50 did it give?
The IC50 was 98 nM.

How did the IC50 turn out when Cc1nc(C)c(C(=O)Nc2cccc([C@]3(C)CC(=O)N(C)C(N)=N3)c2)o1 [Example 5, 2,4-Dimethyl-oxazole-5-carboxylic acid [3-((S)-2-amino-1,4-dimethyl-6-oxo-1,4,5,6-tetrahydro-pyrimidin-4-yl)-phenyl]amide] was run?
Its IC50 is 121 nM.

How did the IC50 turn out when Cc1cc(C(=O)Nc2cccc([C@]3(C)CC(=O)N(C)C(N)=N3)c2)on1 [Example 6, 3-Methyl-isoxazole-5-carboxylic acid [3-((S)-2-amino-1,4-dimethyl-6-oxo-1,4,5,6-tetrahydro-pyrimidin-4-yl)-phenyl]amide] was run?
The IC50 was 307 nM.

With Cc1cc(C(=O)Nc2cccc([C@]3(C)CC(=O)N(C)C(N)=N3)c2)nn1C [Example 7, 1,5-Dimethyl-1H-pyrazole-3-carboxylic acid [3-((S)-2-amino-1,4-dimethyl-6-oxo-1,4,5,6-tetrahydro-pyrimidin-4-yl)-phenyl]amide] as the molecule, how does the IC50 read?
The IC50 was 1010 nM.

Which IC50 does the source give for Cc1cc(C(=O)Nc2cccc([C@]3(C)CC(=O)N(C)C(N)=N3)c2)n(C)n1 [Example 8, 2,5-Dimethyl-2H-pyrazole-3-carboxylic acid [3-((S)-2-amino-1,4-dimethyl-6-oxo-1,4,5,6-tetrahydro-pyrimidin-4-yl)-phenyl]amide] here?
The IC50 was 126 nM.

How did the IC50 turn out when CN1C(=O)C[C@@](C)(c2cccc(NC(=O)c3cn4ccccc4n3)c2)N=C1N [Example 9, Imidazo[1,2-a]pyridine-2-carboxylic acid [3-((S)-2-amino-1,4-dimethyl-6-oxo-1,4,5,6-tetrahydro-pyrimidin-4-yl)-phenyl]amide] was run?
The IC50 was 110 nM.

With CN1C(=O)C[C@@](C)(c2cccc(NC(=O)c3ccc(Cl)cn3)c2)N=C1N [Example 10, 5-Chloro-pyridine-2-carboxylic acid [3-((S)-2-amino-1,4-dimethyl-6-oxo-1,4,5,6-tetrahydro-pyrimidin-4-yl)-phenyl]amide] as the molecule, how does the IC50 read?
The IC50 was 7 nM.

For CN1C(=O)C[C@@](C)(c2cccc(NC(=O)c3ccc(C(F)(F)F)cn3)c2)N=C1N [Example 11, 5-Trifluoromethyl-pyridine-2-carboxylic acid [3-((S)-2-amino-1,4-dimethyl-6-oxo-1,4,5,6-tetrahydro-pyrimidin-4-yl)-phenyl]amide], which IC50 is on record?
Its IC50 is 28 nM.

How did the IC50 turn out when Cc1ccc(C(=O)Nc2cccc([C@]3(C)CC(=O)N(C)C(N)=N3)c2)nc1 [Example 12, 5-Methyl-pyridine-2-carboxylic acid [3-((S)-2-amino-1,4-dimethyl-6-oxo-1,4,5,6-tetrahydro-pyrimidin-4-yl)-phenyl]amide] was run?
Its IC50 is 37 nM.

Which IC50 does the source give for CN1C(=O)C[C@@](C)(c2cccc(NC(=O)c3ccccn3)c2)N=C1N [Example 13, Pyridine-2-carboxylic acid [3-((S)-2-amino-1,4-dimethyl-6-oxo-1,4,5,6-tetrahydro-pyrimidin-4-yl)-phenyl]-amide] here?
The IC50 was 9 nM.

For COc1ccc(C(=O)Nc2cccc([C@]3(C)CC(=O)N(C)C(N)=N3)c2)nc1 [Example 14, 5-Methoxy-pyridine-2-carboxylic acid [3-((S)-2-amino-1,4-dimethyl-6-oxo-1,4,5,6-tetrahydro-pyrimidin-4-yl)-phenyl]-amide], which IC50 is on record?
The IC50 was 25 nM.

For CN1C(=O)C[C@@](C)(c2cccc(NC(=O)c3ccc(C#N)cn3)c2)N=C1N [Example 15, 5-Cyano-pyridine-2-carboxylic acid [3-((S)-2-amino-1,4-dimethyl-6-oxo-1,4,5,6-tetrahydro-pyrimidin-4-yl)-phenyl]amide], which IC50 is on record?
Its IC50 is 10 nM.

How did the IC50 turn out when CN1C(=O)C[C@@](C)(c2cccc(NC(=O)c3ccc(CO)cn3)c2)N=C1N [Example 16, 5-Hydroxymethyl-pyridine-2-carboxylic acid [3-((S)-2-amino-1,4-dimethyl-6-oxo-1,4,5,6-tetrahydro-pyrimidin-4-yl)-phenyl]amide] was run?
The IC50 was 458 nM.

How did the IC50 turn out when Cc1ccc(C(=O)Nc2cccc([C@]3(C)CC(=O)N(C)C(N)=N3)c2)cc1 [Example 17, N-[3-((S)-2-Amino-1,4-dimethyl-6-oxo-1,4,5,6-tetrahydro-pyrimidin-4-yl)-phenyl]-4-methyl-benzamide] was run?
Its IC50 is 120 nM.

Which IC50 does the source give for CN1C(=O)C[C@@](C)(c2cccc(NC(=O)c3ccc(Cl)cc3)c2)N=C1N [Example 18, N-[3-((S)-2-Amino-1,4-dimethyl-6-oxo-1,4,5,6-tetrahydro-pyrimidin-4-yl)-phenyl]-4-chloro-benzamide] here?
Its IC50 is 50 nM.

Which IC50 does the source give for CN1C(=O)C[C@@](C)(c2cccc(NC(=O)c3ccc(Cl)nc3)c2)N=C1N [Example 19, N-[3-((S)-2-Amino-1,4-dimethyl-6-oxo-1,4,5,6-tetrahydro-pyrimidin-4-yl)-phenyl]-6-chloro-nicotinamide] here?
The IC50 was 549 nM.

CN1C(=O)C[C@@](C)(c2cccc(NC(=O)c3ncc(Cl)cn3)c2)N=C1N [Example 20, 5-Chloro-pyrimidine-2-carboxylic acid [3-((S)-2-amino-1,4-dimethyl-6-oxo-1,4,5,6-tetrahydro-pyrimidin-4-yl)-phenyl]amide] was tested. Which IC50 did it give?
Its IC50 is 6 nM.

For CN1C(=O)C[C@@](C)(c2cccc(NC(=O)c3ccc(=O)n(C)n3)c2)N=C1N [Example 21, 1-Methyl-6-oxo-1,6-dihydro-pyridazine-3-carboxylic acid [3-((S)-2-amino-1,4-dimethyl-6-oxo-1,4,5,6-tetrahydro-pyrimidin-4-yl)-phenyl]amide], which IC50 is on record?
The IC50 was 4200 nM.

For Cc1cnc(C(=O)Nc2cccc([C@]3(C)CC(=O)N(C)C(N)=N3)c2)cn1 [Example 22, 5-Methyl-pyrazine-2-carboxylic acid [3-((S)-2-amino-1,4-dimethyl-6-oxo-1,4,5,6-tetrahydro-pyrimidin-4-yl)-phenyl]amide], which IC50 is on record?
The IC50 was 123 nM.

Which IC50 does the source give for CN1C(=O)C[C@@](C)(c2cccc(NC(=O)c3ccc(=O)[nH]n3)c2)N=C1N [Example 23, 6-Oxo-1,6-dihydro-pyridazine-3-carboxylic acid [3-((S)-2-amino-1,4-dimethyl-6-oxo-1,4,5,6-tetrahydro-pyrimidin-4-yl)-phenyl]amide] here?
The IC50 was 58 nM.

For Cc1cncc(C(=O)Nc2cccc([C@]3(C)CC(=O)N(C)C(N)=N3)c2)n1 [Example 24, 6-Methyl-pyrazine-2-carboxylic acid [3-((S)-2-amino-1,4-dimethyl-6-oxo-1,4,5,6-tetrahydro-pyrimidin-4-yl)-phenyl]amide], which IC50 is on record?
The IC50 was 217 nM.
